# Laboratory results: patent publication US11458132B2, “Quinolin-2(1H)-one inhibitors of Late SV40 Factor” (TRUSTEES OF BOSTON UNIVERSITY, priority 2020, dated 2022)
# Test system: colorectal cancer tumor
# Experiment: Colorectal cancer tumor size and tumor tissue, FIGS. 22-24
# Type: in vivo, mouse
# Conditions: treated versus control
compound,measurement,value
"CC(C)COc1cc(N(C)C)ccc1C1CC(=O)Nc2cc3c(cc21)OCO3 (stereo not shown) [FQI-234, 8-(4-(dimethylamino)-2-isobutoxyphenyl)-7,8-dihydro-[1,3]dioxolo[4,5-g]quinolin-6(5H)-one]","stained tumor tissue, microscope images","more organized, interstitium and differentiated tumor"
